Measured values published in ChEMBL document CHEMBL5113494, “Novel difluoromethyl-containing 1-((4-methoxy-3-(piperazin-1-yl)phenyl)sulfonyl)-1H-indole scaffold as potent 5-HT6R antagonists: Design, synthesis, biological evaluation, and early in vivo cognition-enhancing studies” (Bioorg Med Chem, 2022).

Columns and labels:
[1] = Sprague-Dawley, rat, in vivo, iv, 2 mg/kg, 24 h
in vivo [2] = details: Sprague-Dawley, rat, po, 5 mg/kg
physchem [3] = assay: physchem
in vivo [4] = details: Sprague-Dawley, rat, po, 5 mg/kg; remark: listed apart in the source
in vivo [5] = details: Sprague-Dawley, rat, iv, 2 mg/kg
in vivo [6] = details: Sprague-Dawley, rat, po, 5 mg/kg; remark: listed apart in the source
physchem [7] = details: octanol/water
in vivo [8] = details: Sprague-Dawley, rat, po, 5 mg/kg; remark: listed apart in the source

Row | SMILES | pKa (physchem [3]) | logP (physchem [7]) | AUCt [1] [ng·h/mL] | AUC(0-t) at 24 h (in vivo [2]) [ng·h/mL] | bioavailability at 24 h (in vivo [4]) [%] | Cmax at 24 h (in vivo [5]) [ng/mL] | half-life at 24 h (in vivo [6]) [min] | Cmax at 24 h (in vivo [8]) [ng/mL]
1 | COc1ccc(S(=O)(=O)n2cc(C(F)F)c3cc(Cl)ccc32)cc1N1CCNCC1 | 8.66 | 3.85 | – | – | – | – | – | –
2 | COc1ccc(S(=O)(=O)n2cc(C)c3ccc(F)cc32)cc1N1CCNCC1 | 8.78 | 3.3 | – | – | – | – | – | –
3 | COc1ccc(S(=O)(=O)n2cc(C(F)F)c3cc(F)ccc32)cc1N1CCNCC1 | 8.78 | 3.31 | – | – | – | – | – | –
4 | COc1ccc(S(=O)(=O)n2ccc3ccc(Br)cc32)cc1N1CCNCC1 | 8.68 | 3.73 | 153 | 32 | 9.35 | 133 | 126 | 10

Second part, led by results:

Row | pKa (physchem [3]) | logP (physchem [7]) | SMILES | AUCt [1] [ng·h/mL] | AUC(0-t) at 24 h (in vivo [2]) [ng·h/mL] | bioavailability at 24 h (in vivo [4]) [%] | Cmax at 24 h (in vivo [5]) [ng/mL] | half-life at 24 h (in vivo [6]) [min] | Cmax at 24 h (in vivo [8]) [ng/mL]
5 | 8.62 | 3.39 | COc1ccc(S(=O)(=O)n2cc(C(F)F)c3ccc(F)cc32)cc1N1CCNCC1 | 290 | 102 | 14.4 | 77 | 204 | 24
6 | – | 3.22 | COc1ccc(S(=O)(=O)n2cc(C)c3cc(F)ccc32)cc1N1CCNCC1 | – | – | – | – | – | –
